Tests used:
Format in all cases: cell-based
[1] = molecular target: GluR6 (GluR6(R), edited version), homomeric KA-type receptor (Rattus norvegicus, UniProt P42260, Q621R); assay: two-electrode voltage clamp, Xenopus oocytes, block of kainate current
[2] = tested on: AMPA receptors expressed by rat cerebral cortex mRNA; assay: as above; settings: competitive antagonist; 100 μM kainate; −80 mV; pH 7.4; 19–21°C
[3] = tested on: metabotropic glutamate receptors (mGluRs, group I) expressed by rat brain mRNA; settings: antagonist test, 10 μM quisqualate in the cerebellum mRNA test
[4] = molecular target: T1, GluR3 (GluR3o, flop variant), homomeric AMPA-type receptor (Rattus norvegicus, UniProt P19492); assay: two-electrode voltage clamp, Xenopus oocytes, block of kainate current
[5] = molecular target: T1, GluR3 (GluR3o, flop variant), homomeric AMPA-type receptor; assay: two-electrode voltage clamp, Xenopus oocytes, agonist-evoked current; settings: 100 μM, −80 mV, pH 7.4

GluR6 (GluR6(R), edited version), homomeric KA-type receptor, sequence (P42260 32-908 Q621R): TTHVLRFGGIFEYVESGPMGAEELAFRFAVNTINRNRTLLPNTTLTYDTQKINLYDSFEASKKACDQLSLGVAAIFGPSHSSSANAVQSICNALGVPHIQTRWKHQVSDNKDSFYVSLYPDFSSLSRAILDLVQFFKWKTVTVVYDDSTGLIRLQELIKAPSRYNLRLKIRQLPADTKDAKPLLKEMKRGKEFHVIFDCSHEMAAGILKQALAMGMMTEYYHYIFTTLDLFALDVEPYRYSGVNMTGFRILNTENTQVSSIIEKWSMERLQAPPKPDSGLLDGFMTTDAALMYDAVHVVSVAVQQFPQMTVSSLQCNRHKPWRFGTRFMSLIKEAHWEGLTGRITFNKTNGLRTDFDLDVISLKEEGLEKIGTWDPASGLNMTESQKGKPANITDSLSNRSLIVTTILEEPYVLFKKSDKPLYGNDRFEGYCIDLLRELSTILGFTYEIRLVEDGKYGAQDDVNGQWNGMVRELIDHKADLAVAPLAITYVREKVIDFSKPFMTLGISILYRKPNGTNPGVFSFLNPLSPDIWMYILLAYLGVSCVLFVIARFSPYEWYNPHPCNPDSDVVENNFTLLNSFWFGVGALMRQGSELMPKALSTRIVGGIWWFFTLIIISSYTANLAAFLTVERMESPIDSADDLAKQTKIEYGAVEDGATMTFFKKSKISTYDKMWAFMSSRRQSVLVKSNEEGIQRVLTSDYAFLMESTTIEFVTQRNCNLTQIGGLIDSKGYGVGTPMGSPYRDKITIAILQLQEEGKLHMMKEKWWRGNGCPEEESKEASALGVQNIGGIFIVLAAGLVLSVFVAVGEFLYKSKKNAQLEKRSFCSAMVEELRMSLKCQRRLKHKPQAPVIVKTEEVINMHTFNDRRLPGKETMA

IC50 [1] [nM]	IC50 [2] [nM]	IC50 [3] [nM]	IC50 [4] [nM]	SMILES	two-electrode voltage clamp, Xenopus oocytes, agonist-evoked current [5]
~100000	242 ± 37	> 100000	502 ± 55	N[C@@H](C(=O)O)[C@H](O)[C@@]1(C(=O)O)CC[C@H](C[C@H](NC(=O)c2cc(Cl)c(O)c(Cl)c2)C(=O)O)N1 [(−)-kaitocephalin]	–
–	–	–	–	C=C(C)[C@H]1CN[C@H](C(=O)O)[C@H]1CC(=O)O [kainate]	GluR3 receptors, similarly to the AMPA receptors expressed by mRNA, generated large KA-currents
